This note sets out measurements from PubChem BioAssay (NCI).

Experiment in all cases: inhibition of tumour cell growth, NCI panel, 48 h
The subject of test [1] is ACHN renal.
Test [2] deals with SR leukemia.
For test [3], the system named is SF-295 CNS.
Test [4] relates to MDA-MB-435.
Test [5] relates to SNB-75 CNS.
Test [6] concerns MCF7 breast.
For test [7], the system named is KM12 colon.
The test system of test [8] is NCI-H23 lung.
Test [9] concerns HOP-62 NSCLC.
Test [10] relates to 786-0 renal.

Structures are written as SMILES.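 Where inhibition never reached the appropriate level, the endpoint shown equals the highest concentration tested. Otherwise, values were interpolated linearly from a five-concentration, 48-hour dose response in 96-well plates. Abbreviation: GI50, concentration required for 50% inhibition of growth. TGI is the concentration that stops growth completely.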 Some results are limits rather than exact numbers.

Turning to `Nc1nc(-c2ccc3c(c2)/C(=C\c2cc(Br)c(O)c(Br)c2)C(=O)N3)cs1`, the GI50 in test [1] was greater than 23.9 µM; in [2], 11.3 µM; in test [3] it was 10.1 µM; in test [4], 4.68 µM; in [5], 11.8 µM; in [6], 12.8 µM. Also, the GI50 in [7] was 10.4 µM; in [8] it was 14.3 µM; in test [9], greater than 17 µM; in test [10] it was 14.1 µM. The TGI in test [1] is greater than 25 µM; in [2] it was greater than 25 µM; in [3] it was greater than 25 µM; in test [4] it was 12 µM; in test [5], greater than 25 µM; in test [6], greater than 25 µM. The TGI in test [7], in test [8], in [9] and in test [10] was greater than 25 µM throughout.
Turning to `O=C(Nc1nc2c(C(F)(F)F)cccc2s1)c1cc(Cl)ccc1O`, the GI50 was 0.295 µM in test [1]; 0.353 µM in test [2]; 0.232 µM in test [3]; 0.323 µM in test [4]; 0.262 µM in [5]; 0.302 µM in test [6]. Besides, the GI50 in test [7] was 0.363 µM; in [8], 0.296 µM; in test [9], 0.312 µM; in [10], 0.337 µM. Further, the TGI was 0.961 µM in test [1]; 3.28 µM in [2]; 0.707 µM in test [3]; greater than 100 µM in test [4]; 41.6 µM in test [5]; 27.5 µM in [6]. Moreover, the TGI is 11.8 µM in test [7], 1.44 µM in [8], 19.3 µM in test [9] and 12.2 µM in test [10].
As to `Oc1c(C(c2ccc(F)cc2)N2CCCCC2)ccc2cncnc12` (stereo not drawn), the GI50 in test [1] is 1.24 µM; in test [2] it was 0.675 µM; in [3] it was 0.413 µM; in [4], 0.412 µM; in test [5] it was 0.246 µM; in test [6], 0.344 µM. The GI50 was 1.07 µM in test [7], 0.414 µM in [8], 0.513 µM in test [9] and 1.69 µM in [10]. Moreover, the TGI in test [1] is greater than 100 µM; in test [2], greater than 100 µM; in [3], greater than 100 µM; in [4], greater than 100 µM; in test [5] it was 3.95 µM; in test [6], greater than 39.4 µM. Also, the TGI in [7], in test [8], in [9] and in test [10] was greater than 100 µM each time.
Take `Cc1ccsc1C(NC(=O)c1ccccc1)c1cc(Cl)c2cccnc2c1O` (stereo not drawn): the GI50 is 0.45 µM in [1]; 0.398 µM in [2]; 0.333 µM in [3]; 0.505 µM in [4]; 0.32 µM in test [5]; 0.379 µM in test [6]. Moreover, the GI50 is 0.493 µM in test [7], 0.65 µM in [8], 0.471 µM in [9] and 1.19 µM in test [10]. Also, the TGI is 11.2 µM in [1]; 12.3 µM in test [2]; 12.2 µM in test [3]; 17.2 µM in [4]; 14.9 µM in test [5]; 16.2 µM in [6]. The TGI in [7] was 16 µM; in test [8], 17.5 µM; in test [9], 5.68 µM; in test [10], 11.4 µM.
Take `Cc1cc(I)cc(CN(C)CCCN2CCC(C)CC2)c1O`: the GI50 in test [1] was 16.3 µM; in test [2] it was 11.5 µM; in test [3], 14.5 µM; in test [4], 11.6 µM; in test [5], 11 µM; in test [6], 14.2 µM. Also, the GI50 in test [7] is 13.1 µM; in test [8], 15.4 µM; in [9], 14.1 µM; in test [10] it was 13.4 µM. Moreover, the TGI in test [1] is 30.7 µM; in test [2], 32.2 µM; in test [3] it was 29.3 µM; in [4] it was 25 µM; in [5], 23 µM; in test [6] it was 28.2 µM. In addition, the TGI amounted to 27.9 µM in test [7], 33.7 µM in [8], 27.2 µM in [9] and 26.2 µM in test [10].
As for `COc1ccc(C(=O)/C=C/c2ccc(OCc3cccc(C(F)(F)F)c3)c(OC)c2)cc1OC`, the GI50 is 52.8 µM in test [1]; 33.8 µM in test [2]; 70.3 µM in [3]; 45.8 µM in [4]; 31.6 µM in [5]; 27.4 µM in [6]. Besides, the GI50 in test [7] was 55.3 µM; in test [8], 46.7 µM; in test [9], 51.5 µM; in test [10], 67.3 µM. The TGI in test [1], in test [2], in [3], in test [4], in [5] and in test [6] was greater than 1000 µM each time. Also, the TGI in [7], in [8], in [9] and in [10] was greater than 1000 µM throughout.
As for `COc1cccc(N2CC(O)=C(c3nc4ccccc4s3)C2=N)c1`, the GI50 in [1] was 0.307 µM; in test [3] it was 0.0744 µM; in [4], 0.0478 µM; in test [6] it was 0.289 µM; in test [7], 0.234 µM; in test [8], 0.652 µM. Also, the GI50 in [9] was 0.56 µM; in test [10], 0.363 µM. Further, the TGI in [1] was greater than 60.2 µM; in test [2], greater than 100 µM; in test [3] it was 6.09 µM; in test [4] it was 0.362 µM; in test [5], 1.98 µM; in test [6] it was greater than 100 µM. For the same molecule, the TGI in test [7] was greater than 100 µM; in [8], greater than 25.2 µM; in [9] it was 23.4 µM; in test [10], 37.1 µM.
Regarding `Cc1cc(OCc2ccc(C(F)(F)F)cc2)c2c(c1)C(=O)C=C(NCCN1CCCC1)C2=O`, the GI50 was 1.97 µM in test [1]; 2.6 µM in test [2]; 1.88 µM in test [3]; 1.62 µM in [4]; 1.49 µM in test [5]; 1.67 µM in test [6]. Further, the GI50 in test [7] is 4.39 µM; in test [8], 4.92 µM; in [9], 3.44 µM; in test [10], 1.6 µM. For the same molecule, the TGI in [1] came to 4.08 µM; in test [2], 6.97 µM; in [3] it was 4 µM; in [4], 3.02 µM; in [5], 2.89 µM; in test [6] it was 3.56 µM. For the same molecule, the TGI was 15.4 µM in test [7], 18.7 µM in test [8], 13.2 µM in test [9] and 2.99 µM in [10].
In the case of `CC1=CC(C)=N/C(=N/S(=O)(=O)c2cc(C)c(Cl)cc2SCc2ccccc2)NN1`, the GI50 was greater than 100 µM in [1]; greater than 100 µM in [2]; greater than 100 µM in test [3]; greater than 100 µM in test [4]; 32.5 µM in [5]; greater than 100 µM in test [6]. Besides, the GI50 in test [7] is greater than 100 µM; in test [8] it was greater than 100 µM; in [9], 82.5 µM; in test [10] it was greater than 100 µM. The TGI in [1], in [2], in [3], in test [4], in [5] and in test [6] was greater than 100 µM each time. For the same molecule, the TGI in test [7], in test [8], in test [9] and in [10] was greater than 100 µM each time.
Regarding `Cn1nc(C(F)(F)F)cc1-c1cc(Cl)c(OCc2ccc(Cl)cc2)c(-c2ccc(Cl)c(C(F)(F)F)c2)c1O`, the GI50 in test [1] was 1.39 µM; in [2], 0.651 µM; in test [3], 0.997 µM; in [4], 1.42 µM; in test [5], 0.984 µM; in test [6] it was 1.01 µM. Further, the GI50 was 1.38 µM in test [7], 0.965 µM in [8], 1.26 µM in test [9] and 1.07 µM in test [10]. The TGI is 4.6 µM in test [1]; 2.11 µM in test [2]; 2.55 µM in [3]; 4.18 µM in [4]; 2.68 µM in test [5]; 5.33 µM in test [6]. The TGI in test [7] worked out at 5.07 µM; in [8], 3.86 µM; in [9], 3.3 µM; in test [10], 2.63 µM.
`COc1cc(OC)c(/C=C/C(=O)c2c(OC)cc(OC)cc2OC)c(OC)c1`: the GI50 in test [1] was 2.3 µM; in [2] it was 0.206 µM; in test [3], 0.75 µM; in test [4], 0.235 µM; in test [5], 1.83 µM; in test [6] it was 1.41 µM. Further, the GI50 is 0.469 µM in test [7], 1.35 µM in test [8], 1.27 µM in [9] and 2.02 µM in [10]. Also, the TGI in test [1] is greater than 100 µM; in [2], 0.761 µM; in [3] it was greater than 21 µM; in test [4] it was 0.694 µM; in [5] it was greater than 26.2 µM; in test [6] it was greater than 100 µM. Moreover, the TGI is 2.57 µM in test [7], 6.67 µM in [8], greater than 100 µM in [9] and greater than 74.7 µM in test [10].
Regarding `Oc1c(C(Nc2ccccn2)c2ccccc2)ccc2cccnc12` (stereo not drawn), the TGI in test [1] was 29.1 µM; in test [2], greater than 22.6 µM; in [3] it was greater than 30.3 µM; in [4], greater than 100 µM; in test [5], greater than 60.9 µM; in [6], greater than 100 µM. Besides, the TGI in test [7] was greater than 100 µM; in [8], greater than 77 µM; in [9] it was greater than 68.3 µM; in [10], greater than 37.2 µM.
On to `COc1ccc2c3ccnc(C(F)(F)F)c3n(CCCCN)c2c1`, for which the GI50 in [1] is 4.58 µM; in test [2], 2.64 µM; in [3] it was 6.71 µM; in test [4], 5.69 µM; in test [5], 2.19 µM; in test [6] it was 4.61 µM. Further, the GI50 in [7] was 5.1 µM; in test [8], 8.65 µM; in [9], 8.54 µM; in test [10], 7.09 µM. The TGI in [1] worked out at 16.1 µM; in [2], 9.52 µM; in test [3] it was 22.6 µM; in test [4] it was 20.7 µM; in test [5], 12.8 µM; in test [6], 17.4 µM. In addition, the TGI in test [7] was 17.6 µM; in test [8], 22.2 µM; in [9] it was 21.3 µM; in [10], 19.4 µM.
In the case of `CC1=C(CCC(C)CO)O[C@H]2C[C@H]3[C@@H]4CC[C@H]5C[C@@H](O)CC[C@]5(C)[C@H]4CC(=O)[C@]3(C)[C@@H]12` (stereo partly drawn), the TGI was greater than 69.7 µM in test [1]; 36.4 µM in [2]; greater than 49.9 µM in test [3]; 54.8 µM in test [4]; 50.5 µM in test [5]; greater than 59.4 µM in test [6]. Moreover, the TGI in [7] came out at 30.4 µM; in test [8], 36.6 µM; in test [9], 38.3 µM; in test [10], 52.4 µM.
On to `CC12CCC(C1)C(C)(C)C2OC(=O)c1ccccc1N` (stereo not drawn), for which the TGI came out at 33 µM in test [1]; 25.8 µM in test [2]; 35.6 µM in test [3]; 31.2 µM in [4]; 35.1 µM in test [5]; 31.8 µM in test [6]. Further, the TGI in test [7] was 38 µM; in test [8], 31.2 µM; in test [9], 32.4 µM; in test [10], 33.5 µM.
Consider `[N-]=[N+]=C(C(=O)CN1CCCC1=O)S(=O)(=O)c1ccccc1`, for which the TGI in [1], in test [2], in test [3], in test [4], in test [5] and in [6] was greater than 100 µM each time. The TGI in test [7], in test [8], in test [9] and in test [10] was greater than 100 µM throughout.
